Assay results taken from patent US8541588B2, “Sulfonamide derivatives” (Pfizer Limited, priority 2009, dated 2013).

The molecules below were run against T1, Nav1.7 (or SCN9A) channel; HEK cells stably transfected with hSCN9A (Homo sapiens, UniProt Q15858) (assay: Nav1.7 block, PatchXpress 7000 automated whole-cell voltage clamp, estimated IC50 (EIC50)). Details: estimated IC50; hSCN9A HEK cells, PatchXpress platform; Examples 283-814.
T1 construct: expressed in transfected cells
T1 sequence (Q15858 whole entry): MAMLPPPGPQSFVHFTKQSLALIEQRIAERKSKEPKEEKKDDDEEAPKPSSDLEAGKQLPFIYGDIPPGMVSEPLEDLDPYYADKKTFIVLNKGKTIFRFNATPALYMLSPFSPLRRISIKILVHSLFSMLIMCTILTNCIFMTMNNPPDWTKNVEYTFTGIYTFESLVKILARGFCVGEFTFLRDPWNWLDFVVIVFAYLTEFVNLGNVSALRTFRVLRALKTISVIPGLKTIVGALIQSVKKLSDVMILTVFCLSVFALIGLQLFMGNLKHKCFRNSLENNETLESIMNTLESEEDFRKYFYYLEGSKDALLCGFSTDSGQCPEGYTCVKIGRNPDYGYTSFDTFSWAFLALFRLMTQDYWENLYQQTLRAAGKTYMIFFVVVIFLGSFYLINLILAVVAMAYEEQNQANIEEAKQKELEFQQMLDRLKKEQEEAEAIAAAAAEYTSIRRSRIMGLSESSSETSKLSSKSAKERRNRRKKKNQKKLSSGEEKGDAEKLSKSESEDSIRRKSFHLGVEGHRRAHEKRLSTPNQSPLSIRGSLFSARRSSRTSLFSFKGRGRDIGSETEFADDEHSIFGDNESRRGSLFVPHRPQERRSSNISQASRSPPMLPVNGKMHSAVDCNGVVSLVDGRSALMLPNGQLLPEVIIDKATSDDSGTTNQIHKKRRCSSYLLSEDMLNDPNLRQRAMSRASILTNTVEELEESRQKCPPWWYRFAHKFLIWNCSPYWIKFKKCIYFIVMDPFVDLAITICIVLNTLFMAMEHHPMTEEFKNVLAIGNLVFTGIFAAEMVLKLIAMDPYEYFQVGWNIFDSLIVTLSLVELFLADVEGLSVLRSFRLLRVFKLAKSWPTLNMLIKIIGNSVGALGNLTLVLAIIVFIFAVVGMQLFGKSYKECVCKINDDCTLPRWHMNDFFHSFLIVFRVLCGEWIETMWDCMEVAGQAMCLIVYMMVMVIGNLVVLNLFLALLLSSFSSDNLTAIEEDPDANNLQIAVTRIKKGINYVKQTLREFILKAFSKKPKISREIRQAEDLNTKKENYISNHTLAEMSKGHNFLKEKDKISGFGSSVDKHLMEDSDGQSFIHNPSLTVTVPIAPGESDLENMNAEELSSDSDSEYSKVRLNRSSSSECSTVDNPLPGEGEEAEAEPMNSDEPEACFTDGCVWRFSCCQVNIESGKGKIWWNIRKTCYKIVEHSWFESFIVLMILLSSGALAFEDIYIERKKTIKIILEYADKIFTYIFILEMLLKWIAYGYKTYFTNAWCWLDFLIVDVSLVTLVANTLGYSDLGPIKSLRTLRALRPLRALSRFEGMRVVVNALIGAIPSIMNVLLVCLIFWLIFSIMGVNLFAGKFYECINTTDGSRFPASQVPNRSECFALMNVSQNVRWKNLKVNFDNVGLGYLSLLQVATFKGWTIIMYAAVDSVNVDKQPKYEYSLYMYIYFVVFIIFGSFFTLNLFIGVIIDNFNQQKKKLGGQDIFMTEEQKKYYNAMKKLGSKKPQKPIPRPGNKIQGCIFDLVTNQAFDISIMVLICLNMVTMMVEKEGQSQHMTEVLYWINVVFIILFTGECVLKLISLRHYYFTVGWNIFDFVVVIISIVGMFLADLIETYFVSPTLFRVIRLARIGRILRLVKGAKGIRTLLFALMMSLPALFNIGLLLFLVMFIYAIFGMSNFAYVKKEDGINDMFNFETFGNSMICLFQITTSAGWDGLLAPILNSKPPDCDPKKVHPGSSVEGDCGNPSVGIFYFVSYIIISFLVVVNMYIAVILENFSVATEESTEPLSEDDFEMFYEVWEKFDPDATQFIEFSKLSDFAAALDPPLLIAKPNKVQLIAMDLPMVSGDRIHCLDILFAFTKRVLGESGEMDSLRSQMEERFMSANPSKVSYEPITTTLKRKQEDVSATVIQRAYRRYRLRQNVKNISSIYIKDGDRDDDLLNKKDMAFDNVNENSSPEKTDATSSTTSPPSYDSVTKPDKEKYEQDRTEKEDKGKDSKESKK
Assay type: cell-based
`Nc1ccc(-c2cc(Cl)ccc2Oc2cc(F)c(S(=O)(=O)Nc3ncns3)cc2F)nc1` [Example 411, 4-[2-(5-aminopyridin-2-yl)-4-chlorophenoxy]-2,5-difluoro-N-1,2,4-thiadiazol-5-ylbenzenesulfonamide] showed an IC50 of 540 nM.
Work on `O=S(=O)(Nc1ncns1)c1cc(Cl)c(Oc2ccc(OC(F)F)cc2C2CCNCC2)cc1F` [Example 412, 5-chloro-4-[4-(difluoromethoxy)-2-piperidin-4-ylphenoxy]-2-fluoro-N-1,2,4-thiadiazol-5-ylbenzenesulfonamide] yielded an IC50 of 2.5 nM.
For `Cn1nccc1-c1cc(Cl)ccc1Oc1ccc(S(=O)(=O)Nc2ncsc2Cl)cc1C#N` [Example 413, 4-[4-chloro-2-(1-methyl-1H-pyrazol-5-yl)phenoxy]-N-(5-chloro-1,3-thiazol-4-yl)-3-cyanobenzenesulfonamide], the IC50 was 12000 nM.
`Cn1cc(-c2cc(Cl)ccc2Oc2ccc(S(=O)(=O)Nc3cscn3)cc2C#N)cn1` [Example 414, 4-[4-chloro-2-(1-methyl-1H-pyrazol-4-yl)phenoxy]-3-cyano-N-1,3-thiazol-4-ylbenzenesulfonamide] gave an IC50 of 1000 nM.
With `N#Cc1cc(S(=O)(=O)Nc2cscn2)ccc1Oc1ccc(F)cc1-c1cnn(CC(F)(F)F)c1` [Example 415, 4-{4-fluoro-2-[1-(2,2,2-trifluoroethyl)-1H-pyrazol-4-yl]phenoxy}-3-cyano-N-1,3-thiazol-4-ylbenzenesulfonamide] the IC50 was >1000 nM.
`N#Cc1cc(S(=O)(=O)Nc2nccs2)ccc1Oc1ccc(Cl)cc1-n1cnnn1` [Example 416, 4-(4-chloro-2-(1H-tetrazol-1-yl)phenoxy)-3-cyano-N-(thiazol-2-yl)benzenesulfonamide] gave an IC50 of 1600 nM.
In the case of `N#Cc1cc(S(=O)(=O)Nc2cscn2)ccc1Oc1ccc(Cl)c(Cn2ccnc2)c1` [Example 418, 4-[4-chloro-3-(1H-imidazol-1-ylmethyl)phenoxy]-3-cyano-N-1,3-thiazol-4-ylbenzenesulfonamide], the IC50 is reported as 2300 nM.
`CC(C)(C)n1cc(Cc2cccc(Oc3ccc(S(=O)(=O)Nc4cscn4)cc3C#N)c2)cn1` [Example 419, 4-{3-[(1-tert-butyl-1H-pyrazol-4-yl)methyl]phenoxy}-3-cyano-N-1,3-thiazol-4-ylbenzenesulfonamide] showed an IC50 of 2100 nM.
With `N#Cc1cc(S(=O)(=O)Nc2ncccc2F)ccc1Oc1ccccc1-c1ccccc1` [Example 420, 4-(biphenyl-2-yloxy)-3-cyano-N-(3-fluoropyridin-2-yl)benzenesulfonamide] the IC50 was 24000 nM.
`N#Cc1cccc(NS(=O)(=O)c2ccc(Oc3ccccc3-c3ccccc3)c(C#N)c2)n1` [Example 421, 4-(biphenyl-2-yloxy)-3-cyano-N-(6-cyanopyridin-2-yl)benzenesulfonamide] was tested, and the IC50 was 12000 nM.
`N#Cc1ccnc(NS(=O)(=O)c2ccc(Oc3ccccc3-c3ccccc3)c(C#N)c2)c1` [Example 422, 4-(biphenyl-2-yloxy)-3-cyano-N-(4-cyanopyridin-2-yl)benzenesulfonamide] was tested, and the IC50 was >1000 nM.
For `Cc1ccc(NS(=O)(=O)c2ccc(Oc3ccccc3-c3ccccc3)c(C#N)c2)nc1` [Example 424, 4-(biphenyl-2-yloxy)-3-cyano-N-(5-methylpyridin-2-yl)benzenesulfonamide], the IC50 was >3000 nM.
`Cc1ccnc(NS(=O)(=O)c2ccc(Oc3ccccc3-c3ccccc3)c(C#N)c2)n1` [Example 425, 4-(biphenyl-2-yloxy)-3-cyano-N-(4-methylpyrimidin-2-yl)benzenesulfonamide] gave an IC50 of 11000 nM.
Work on `N#Cc1cc(S(=O)(=O)Nc2cnc(Cl)nc2)ccc1Oc1ccccc1-c1ccccc1` [Example 426, 4-(biphenyl-2-yloxy)-N-(2-chloropyrimidin-5-yl)-3-cyanobenzenesulfonamide] yielded an IC50 of 36000 nM.
Molecule `N#Cc1cc(S(=O)(=O)Nc2ncc(F)cn2)ccc1Oc1ccccc1-c1ccccc1` [Example 427, 4-(biphenyl-2-yloxy)-3-cyano-N-(5-fluoropyrimidin-2-yl)benzenesulfonamide] has an IC50 of 4300 nM.
`Cc1cncnc1NS(=O)(=O)c1ccc(Oc2ccccc2-c2ccccc2)c(C#N)c1` [Example 428, 4-(biphenyl-2-yloxy)-3-cyano-N-(5-methylpyrimidin-4-yl)benzenesulfonamide] was tested, and the IC50 was >10000 nM.
With `Cc1cnc(NS(=O)(=O)c2ccc(Oc3ccccc3-c3ccccc3)c(C#N)c2)nc1` [Example 429, 4-(biphenyl-2-yloxy)-3-cyano-N-(5-methylpyrimidin-2-yl)benzenesulfonamide] the IC50 was >10000 nM.
For `N#Cc1cc(S(=O)(=O)Nc2ncc(Cl)cn2)ccc1Oc1ccccc1-c1ccccc1` [Example 430, 4-(biphenyl-2-yloxy)-N-(5-chloropyrimidin-2-yl)-3-cyanobenzenesulfonamide], the IC50 was 12000 nM.
`N#Cc1cc(S(=O)(=O)Nc2ncn[nH]2)ccc1Oc1ccccc1-c1ccccc1` [Example 431, 4-(biphenyl-2-yloxy)-3-cyano-N-1H-1,2,4-triazol-5-ylbenzenesulfonamide] showed an IC50 of 11000 nM.
For `N#Cc1cnc(NS(=O)(=O)c2ccc(Oc3ccccc3-c3ccccc3)c(C#N)c2)nc1` [Example 432, 4-(biphenyl-2-yloxy)-3-cyano-N-(5-cyanopyrimidin-2-yl)benzenesulfonamide], the IC50 was >10000 nM.
`N#Cc1ccnc(NS(=O)(=O)c2ccc(Oc3ccccc3-c3ccccc3)c(C#N)c2)n1` [Example 433, 4-(biphenyl-2-yloxy)-3-cyano-N-(4-cyanopyrimidin-2-yl)benzenesulfonamide] was tested, and the IC50 was 15000 nM.
Work on `N#Cc1cc(S(=O)(=O)Nc2nccc(C(F)(F)F)n2)ccc1Oc1ccccc1-c1ccccc1` [Example 434, 4-(biphenyl-2-yloxy)-3-cyano-N-[4-(trifluoromethyl)pyrimidin-2-yl]benzenesulfonamide] yielded an IC50 of 18000 nM.
`Cn1nccc1-c1ccc(Oc2ccc(S(=O)(=O)Nc3nccs3)cc2C#N)cc1` [Example 436, 3-cyano-4-[4-(1-methyl-1H-pyrazol-5-yl)phenoxy]-N-1,3-thiazol-2-ylbenzenesulfonamide] showed an IC50 of 1300 nM.
For `Cn1nccc1-c1cc(C(F)(F)F)ccc1Oc1ccc(S(=O)(=O)Nc2ncns2)cc1C#N` [Example 437, 3-cyano-4-[2-(1-methyl-1H-pyrazol-5-yl)-4-(trifluoromethyl)phenoxy]-N-1,2,4-thiadiazol-5-ylbenzenesulfonamide], the IC50 was 56 nM.
In the case of `COc1cc(-c2cc(Cl)ccc2Oc2ccc(S(=O)(=O)Nc3nccs3)cc2C#N)n(C)n1` [Example 439, 4-[4-chloro-2-(3-methoxy-1-methyl-1H-pyrazol-5-yl)phenoxy]-3-cyano-N-1,3-thiazol-2-ylbenzenesulfonamide], the IC50 is reported as 490 nM.
With `Cn1nccc1-c1cc(C(F)(F)F)ccc1Oc1ccc(S(=O)(=O)Nc2nccs2)cc1C#N` [Example 440, 3-cyano-4-[2-(1-methyl-1H-pyrazol-5-yl)-4-(trifluoromethyl)phenoxy]-N-1,3-thiazol-2-ylbenzenesulfonamide] the IC50 was 17 nM.
`Cn1nccc1-c1cc(C#N)ccc1Oc1cc(F)c(S(=O)(=O)Nc2ncc(Cl)s2)cc1F` [Example 441, N-(5-chloro-1,3-thiazol-2-yl)-4-[4-cyano-2-(1-methyl-1H-pyrazol-5-yl)phenoxy]-2,5-difluorobenzenesulfonamide] was tested, and the IC50 was 960 nM.
In the case of `Cn1nccc1-c1cc(Cl)ccc1Oc1ccc(S(=O)(=O)Nc2ccccn2)cc1C#N` [Example 442, 4-[4-chloro-2-(1-methyl-1H-pyrazol-5-yl)phenoxy]-3-cyano-N-pyridin-2-ylbenzenesulfonamide], the IC50 is reported as 1300 nM.
`Cn1nccc1-c1ccc(Oc2ccc(S(=O)(=O)Nc3nccs3)cc2C#N)cc1Cl` [Example 443, 4-[3-chloro-4-(1-methyl-1H-pyrazol-5-yl)phenoxy]-3-cyano-N-1,3-thiazol-2-ylbenzenesulfonamide] was tested, and the IC50 was 1800 nM.
For `N#Cc1cc(S(=O)(=O)Nc2nccs2)ccc1Oc1cccc(-c2ccn[nH]2)c1` [Example 444, 3-cyano-4-[3-(1H-pyrazol-5-yl)phenoxy]-N-1,3-thiazol-2-ylbenzenesulfonamide], the IC50 was 9900 nM.
With `Cn1nccc1-c1cccc(Oc2ccc(S(=O)(=O)Nc3nccs3)cc2C#N)c1` [Example 445, 3-cyano-4-[3-(1-methyl-1H-pyrazol-5-yl)phenoxy]-N-1,3-thiazol-2-ylbenzenesulfonamide] the IC50 was >1000 nM.
`N#Cc1cc(S(=O)(=O)Nc2nccs2)ccc1Oc1ccc(Cl)c(-c2ccn[nH]2)c1` [Example 446, 4-[4-chloro-3-(1H-pyrazol-5-yl)phenoxy]-3-cyano-N-1,3-thiazol-2-ylbenzenesulfonamide] showed an IC50 of 2300 nM.
With `N#Cc1cc(S(=O)(=O)Nc2nccs2)ccc1Oc1cccc(-c2cc(C(F)(F)F)ccn2)c1` [Example 447, 3-cyano-N-1,3-thiazol-2-yl-4-{3-[4-(trifluoromethyl)pyridin-2-yl]phenoxy}benzenesulfonamide] the IC50 was 1800 nM.
In the case of `N#Cc1cc(S(=O)(=O)Nc2nccs2)ccc1Oc1cccc(-c2cccc(C(F)(F)F)n2)c1` [Example 448, 3-cyano-N-1,3-thiazol-2-yl-4-{3-[6-(trifluoromethyl)pyridin-2-yl]phenoxy}benzenesulfonamide], the IC50 is reported as 2000 nM.
`N#Cc1cc(S(=O)(=O)Nc2nccs2)ccc1Oc1cccc(-c2ccccn2)c1` [Example 449, 3-cyano-4-(3-pyridin-2-ylphenoxy)-N-1,3-thiazol-2-ylbenzenesulfonamide] was tested, and the IC50 was 3100 nM.
Work on `Cc1ccnc(-c2ccc(Oc3ccc(S(=O)(=O)Nc4nccs4)cc3C#N)cc2)c1` [Example 450, 3-cyano-4-[4-(4-methylpyridin-2-yl)phenoxy]-N-1,3-thiazol-2-ylbenzenesulfonamide] yielded an IC50 of 3400 nM.
For `COc1cccc(-c2ccc(Oc3ccc(S(=O)(=O)Nc4nccs4)cc3C#N)cc2)n1` [Example 451, 3-cyano-4-[4-(6-methoxypyridin-2-yl)phenoxy]-N-1,3-thiazol-2-ylbenzenesulfonamide], the IC50 was >1000 nM.
`N#Cc1cc(S(=O)(=O)Nc2nccs2)ccc1Oc1ccc(-c2cccc(C(F)(F)F)n2)cc1` [Example 453, 3-cyano-N-1,3-thiazol-2-yl-4-{4-[6-(trifluoromethyl)pyridin-2-yl]phenoxy}benzenesulfonamide] showed an IC50 of 1700 nM.
`N#Cc1cc(S(=O)(=O)Nc2nccs2)ccc1Oc1ccc(-c2nccc(C(F)(F)F)n2)cc1` [Example 454, 3-cyano-N-1,3-thiazol-2-yl-4-{4-[4-(trifluoromethyl)pyrimidin-2-yl]phenoxy}benzenesulfonamide] was tested, and the IC50 was >1000 nM.
